Laboratory results as given in ChEMBL document CHEMBL1132267, “Synthesis and antibacterial properties of beta-diketone acrylate bioisosteres of pseudomonic acid A” (Bioorg Med Chem Lett, 1999).
≈ marks a conversion by molar mass, not a printed value.

What was measured:
[1] = system: Streptococcus pyogenes; experiment: In vitro antibacterial activity against Streptococcus pyogenes CN10; assay type: functional
[2] = system: Streptococcus pneumoniae; experiment: In vitro antibacterial activity against Streptococcus pneumoniae PU7; assay type: functional
[3] = system: Haemophilus influenzae; experiment: In vitro antibacterial activity against Haemophilus influenzae Q1; assay type: functional
[4] = system: Staphylococcus aureus; experiment: In vitro antibacterial activity against Staphylococcus aureus Oxford; assay type: functional
[5] = system: Moraxella catarrhalis; experiment: In vitro antibacterial activity against Moraxella catarrhalis 1502; assay type: functional
[6] = target: T1, Isoleucine--tRNA ligase (Staphylococcus aureus) (UniProt P41972); experiment: In vitro antibacterial activity against isoleucyl-tRNA synthetase from Staphylococcus aureus Oxford; assay type: functional
T1 sequence (whole entry): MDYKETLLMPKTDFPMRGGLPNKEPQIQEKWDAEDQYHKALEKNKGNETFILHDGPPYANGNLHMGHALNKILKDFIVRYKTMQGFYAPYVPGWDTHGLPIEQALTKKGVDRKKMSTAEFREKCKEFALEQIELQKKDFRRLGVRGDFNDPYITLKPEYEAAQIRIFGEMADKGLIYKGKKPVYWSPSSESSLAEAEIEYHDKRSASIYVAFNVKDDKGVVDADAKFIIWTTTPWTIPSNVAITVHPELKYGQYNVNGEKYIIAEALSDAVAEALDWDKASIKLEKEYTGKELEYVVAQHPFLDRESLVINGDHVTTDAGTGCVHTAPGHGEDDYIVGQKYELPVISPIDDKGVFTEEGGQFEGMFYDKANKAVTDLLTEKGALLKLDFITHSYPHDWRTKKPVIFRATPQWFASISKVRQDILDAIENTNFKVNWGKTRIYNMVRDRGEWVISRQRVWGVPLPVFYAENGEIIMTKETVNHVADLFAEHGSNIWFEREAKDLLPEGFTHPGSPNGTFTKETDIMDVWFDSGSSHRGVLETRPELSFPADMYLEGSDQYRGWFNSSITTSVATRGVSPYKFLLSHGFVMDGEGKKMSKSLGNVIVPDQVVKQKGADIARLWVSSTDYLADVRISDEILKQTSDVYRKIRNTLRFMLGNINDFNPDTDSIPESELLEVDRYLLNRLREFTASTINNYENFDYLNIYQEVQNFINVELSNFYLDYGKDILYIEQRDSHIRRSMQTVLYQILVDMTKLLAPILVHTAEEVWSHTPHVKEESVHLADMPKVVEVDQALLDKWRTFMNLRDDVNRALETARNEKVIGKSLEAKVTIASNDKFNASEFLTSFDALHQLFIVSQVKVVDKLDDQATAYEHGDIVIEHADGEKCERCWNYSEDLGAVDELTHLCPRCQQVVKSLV

[7] = system: Isoleucine--tRNA ligase (Haemophilus influenzae); experiment: In vitro antibacterial activity against isoleucyl-tRNA synthetase from Haemophilus influenzae Q1
[8] = system: Isoleucine--tRNA ligase (Streptococcus pneumoniae); experiment: In vitro antibacterial activity against isoleucyl-tRNA synthetase from Streptococcus pneumoniae PU7
[9] = system: Homo sapiens; experiment: The compound was tested for its percentage serum binding affinity in human […]; assay type: organism-based
[10] = system: Isoleucine--tRNA ligase (Streptococcus pyogenes); experiment: In vitro antibacterial activity against isoleucyl-tRNA synthetase from Streptococcus pyogenes CN10
[11] = system: Mus musculus; experiment: Concentration required to protect 50% of the mice from death after s.c. administration of compound tested in vivo; assay type: functional
[12] = system: Isoleucine--tRNA ligase (Moraxella catarrhalis); experiment: In vitro antibacterial activity against isoleucyl-tRNA synthetase from Moraxella catarrhalis 1502
[13] = system: Mus musculus; experiment: The area under curve in vivo in mouse blood level after subcutaneous administration at dose 50 mk/kg e-1; assay type: ADME, organism-based; conditions: sc
[14] = system: Mus musculus; experiment: Concentration required to protect 50% of the mice from death after oral administration of compound tested in vivo; assay type: functional
[15] = system: Mus musculus; experiment: The area under curve in vivo in mouse blood level after oral administration at dose 50 mk/kg e-1; assay type: ADME, organism-based
[16] = system: Mus musculus; experiment: The compound was tested for its percentage serum binding affinity in mouse […]; assay type: functional

SMILES | MIC [1] | MIC [2] | MIC [3] | MIC [4] | MIC [5] | MIC [6] | MIC [7] | MIC [8] | Bound [9] | MIC [10] | CD50 [11] | MIC [12] | AUC [13] | CD50 [14] | AUC [15] | Bound [16]
C[C@H]([C@@H]1O[C@H]1C[C@H]1CO[C@@H](CC(=O)CC(=O)c2ccccc2)[C@H](O)[C@@H]1O)[C@H](C)O | 0.5 µg/mL (≈ 1.23 µM) | 0.5 µg/mL (≈ 1.23 µM) | 0.25 µg/mL (≈ 0.615 µM) | 1 µg/mL (≈ 2.46 µM) | 1 µg/mL (≈ 2.46 µM) |  |  |  |  |  |  |  |  |  |  | 
CCOC(OCC)c1ccc(C(=O)CC(=O)C[C@@H]2OC[C@H](C[C@@H]3O[C@H]3[C@@H](C)[C@H](C)O)[C@@H](O)[C@H]2O)cc1 | 0.5 µg/mL (≈ 0.983 µM) | 1 µg/mL (≈ 1.97 µM) | 1 µg/mL (≈ 1.97 µM) | 1 µg/mL (≈ 1.97 µM) | 0.5 µg/mL (≈ 0.983 µM) |  |  |  |  |  |  |  |  |  |  | 
C[C@H]([C@@H]1O[C@H]1C[C@H]1CO[C@@H](CC(=O)CC(=O)c2cnc(N(C)C)nc2)[C@H](O)[C@@H]1O)[C@H](C)O | 1 µg/mL (≈ 2.21 µM) | 1 µg/mL (≈ 2.21 µM) | 0.25 µg/mL (≈ 0.554 µM) | 2 µg/mL (≈ 4.43 µM) | 2 µg/mL (≈ 4.43 µM) |  |  |  |  |  |  |  |  |  |  | 
C[C@H]([C@@H]1O[C@H]1C[C@H]1CO[C@@H](CC(=O)CC(=O)c2ccoc2)[C@H](O)[C@@H]1O)[C@H](C)O | 1 µg/mL (≈ 2.52 µM) | 2 µg/mL (≈ 5.04 µM) | 0.13 µg/mL (≈ 0.328 µM) | 1 µg/mL (≈ 2.52 µM) | 2 µg/mL (≈ 5.04 µM) |  |  |  |  |  |  |  |  |  |  | 
COc1ccc(C(=O)CC(=O)C[C@@H]2OC[C@H](C[C@@H]3O[C@H]3[C@@H](C)[C@H](C)O)[C@@H](O)[C@H]2O)cn1 | 0.13 µg/mL (≈ 0.297 µM) | 0.13 µg/mL (≈ 0.297 µM) | 0.13 µg/mL (≈ 0.297 µM) | 1 µg/mL (≈ 2.29 µM) | 0.25 µg/mL (≈ 0.571 µM) |  |  |  |  |  |  |  |  |  |  | 
C[C@H]([C@@H]1O[C@H]1C[C@H]1CO[C@@H](CC(=O)CC(=O)c2ccc(F)cc2)[C@H](O)[C@@H]1O)[C@H](C)O |  |  |  |  |  | 0.5 µg/mL (≈ 1.18 µM) | 0.06 µg/mL (≈ 0.141 µM) | 0.13 µg/mL (≈ 0.306 µM) | 80% | 0.25 µg/mL (≈ 0.589 µM) | 12 mg/kg | 0.5 µg/mL (≈ 1.18 µM) | 6800 ng·h/mL | 19 mg/kg | 4930 ng·h/mL | 
C[C@H]([C@@H]1O[C@H]1C[C@H]1CO[C@@H](CC(=O)CC(=O)c2cnn(C)c2)[C@H](O)[C@@H]1O)[C@H](C)O | 1 µg/mL (≈ 2.44 µM) | 1 µg/mL (≈ 2.44 µM) | 0.13 µg/mL (≈ 0.317 µM) | 4 µg/mL (≈ 9.74 µM) | 0.5 µg/mL (≈ 1.22 µM) |  |  |  |  |  |  |  |  |  |  | 
COc1ccc(C(=O)/C=C/C[C@@H]2OC[C@H](C[C@@H]3O[C@H]3[C@@H](C)[C@H](C)O)[C@@H](O)[C@H]2O)cc1 | 0.5 µg/mL (≈ 1.19 µM) | 0.25 µg/mL (≈ 0.595 µM) | 0.13 µg/mL (≈ 0.309 µM) | 1 µg/mL (≈ 2.38 µM) | 2 µg/mL (≈ 4.76 µM) |  |  |  |  |  |  |  |  |  |  | 
C/C(=C\C(=O)OCCCCCCCCC(=O)O)C[C@@H]1OC[C@H](C[C@@H]2O[C@H]2[C@@H](C)[C@H](C)O)[C@@H](O)[C@H]1O [MUPIROCIN] | 0.13 µg/mL (≈ 0.26 µM) | 0.13 µg/mL (≈ 0.26 µM) | 0.06 µg/mL (≈ 0.12 µM) | 0.13 µg/mL (≈ 0.26 µM) | 0.13 µg/mL (≈ 0.26 µM) |  |  |  |  |  |  |  |  |  |  | 
COc1ccc(C(=O)/C=C(\C)C[C@@H]2OC[C@H](C[C@@H]3O[C@H]3[C@@H](C)[C@H](C)O)[C@@H](O)[C@H]2O)cc1 |  |  |  |  |  | 0.5 µg/mL (≈ 1.15 µM) | 0.03 µg/mL (≈ 0.069 µM) | 0.25 µg/mL (≈ 0.575 µM) | 96% | 0.25 µg/mL (≈ 0.575 µM) | 12 mg/kg | 0.25 µg/mL (≈ 0.575 µM) | 5600 ng·h/mL | 18 mg/kg | 1770 ng·h/mL | 79%
COc1ccc(C(=O)CC(=O)C[C@@H]2OC[C@H](C[C@@H]3O[C@H]3[C@@H](C)[C@H](C)O)[C@@H](O)[C@H]2O)cc1 |  |  |  |  |  | 0.5 µg/mL (≈ 1.15 µM) | 0.06 µg/mL (≈ 0.137 µM) | 0.25 µg/mL (≈ 0.573 µM) | 75% | 0.25 µg/mL (≈ 0.573 µM) | 3.8 mg/kg | 0.25 µg/mL (≈ 0.573 µM) | 14900 ng·h/mL | 28 mg/kg | 5920 ng·h/mL | 51%
C[C@H]([C@@H]1O[C@H]1C[C@H]1CO[C@@H](CC(=O)CC(=O)c2ccc(N(C)C)nc2)[C@H](O)[C@@H]1O)[C@H](C)O |  |  |  |  |  | 1 µg/mL (≈ 2.22 µM) | 0.06 µg/mL (≈ 0.133 µM) | 0.5 µg/mL (≈ 1.11 µM) | 84% | 1 µg/mL (≈ 2.22 µM) | 12 mg/kg | 1 µg/mL (≈ 2.22 µM) | 13300 ng·h/mL | 23 mg/kg | 7180 ng·h/mL | 66%
C[C@H]([C@@H]1O[C@H]1C[C@H]1CO[C@@H](CC(=O)CC(=O)c2ccsc2)[C@H](O)[C@@H]1O)[C@H](C)O | 1 µg/mL (≈ 2.42 µM) | 0.5 µg/mL (≈ 1.21 µM) | 0.13 µg/mL (≈ 0.315 µM) | 1 µg/mL (≈ 2.42 µM) | 1 µg/mL (≈ 2.42 µM) |  |  |  |  |  |  |  |  |  |  | 
C[C@H]([C@@H]1O[C@H]1C[C@H]1CO[C@@H](CC(=O)CC(=O)c2ccc(N(C)C)cc2)[C@H](O)[C@@H]1O)[C@H](C)O | 1 µg/mL (≈ 2.22 µM) | 0.5 µg/mL (≈ 1.11 µM) | 0.06 µg/mL (≈ 0.133 µM) | 2 µg/mL (≈ 4.45 µM) | 0.5 µg/mL (≈ 1.11 µM) |  |  |  |  |  |  |  |  |  |  | 
CCCCC(=O)CC(=O)C[C@@H]1OC[C@H](C[C@@H]2O[C@H]2[C@@H](C)[C@H](C)O)[C@@H](O)[C@H]1O | 2 µg/mL (≈ 5.17 µM) | 8 µg/mL (≈ 20.7 µM) | 0.5 µg/mL (≈ 1.29 µM) | 8 µg/mL (≈ 20.7 µM) | 2 µg/mL (≈ 5.17 µM) |  |  |  |  |  |  |  |  |  |  | 
C[C@H]([C@@H]1O[C@H]1C[C@H]1CO[C@@H](CC(=O)CC(=O)C2=CCCCC2)[C@H](O)[C@@H]1O)[C@H](C)O | 0.5 µg/mL (≈ 1.22 µM) | 0.5 µg/mL (≈ 1.22 µM) | 0.13 µg/mL (≈ 0.317 µM) | 2 µg/mL (≈ 4.87 µM) | 2 µg/mL (≈ 4.87 µM) |  |  |  |  |  |  |  |  |  |  | 
COc1ccc(/C=C/C(=O)C[C@@H]2OC[C@H](C[C@@H]3O[C@H]3[C@@H](C)[C@H](C)O)[C@@H](O)[C@H]2O)cc1 | 8 µg/mL (≈ 19 µM) | 8 µg/mL (≈ 19 µM) | 1 µg/mL (≈ 2.38 µM) | 128 µg/mL (≈ 304 µM) | 16 µg/mL (≈ 38 µM) |  |  |  |  |  |  |  |  |  |  | 
C[C@H]([C@@H]1O[C@H]1C[C@H]1CO[C@@H](CC(=O)CC(=O)c2ccc(C#N)cc2)[C@H](O)[C@@H]1O)[C@H](C)O | 0.13 µg/mL (≈ 0.301 µM) | 0.25 µg/mL (≈ 0.579 µM) | 0.06 µg/mL (≈ 0.139 µM) | 2 µg/mL (≈ 4.64 µM) | 0.5 µg/mL (≈ 1.16 µM) |  |  |  |  |  |  |  |  |  |  | 
